Laboratory results published in paper PMC10571957, “αV-Integrin-Dependent Inhibition of Glioblastoma Cell Migration, Invasion and Vasculogenic Mimicry by the uPAcyclin Decapeptide” (Cancers, 2023).
Values joined by “and” are separate entries in the source; they are usually repeats but may differ in a detail not shown here. Equal entries are not always repeated.

Tests used:
[1] = tested on: U138-MG cells; test: Boyden chamber Matrigel invasion, U138-MG; format: cell-based, human; settings: for invasion, % of basal, average 2 expts: mean of 2 expts; for invasion, % of basal, average expt 1: mean of expt 1; for invasion, % of basal, average expt 2: mean of expt 2; for invasion, % of basal, T-test list: single replicates of both expts
Protocol: (§1) The migration and invasion assays were performed using Boyden chambers and 8 µm pore size PVP-free filters coated with 50 µg/mL of collagen type VI (Sigma), as previously described. For the invasion assays, collagen-coated filters were further coated with 50 µg/mL Matrigel^TM (Sigma). Briefly, 11 × 10^4 U87-MG, 4 × 10^4 U251-MG, or 4 × 10^4 U138-MG/sample were pre-treated for 40 min at 37 °C with the indicated effectors. Then, the cells were allowed to migrate for 3 h or to invade for 5 h at 37 °C toward 5% FBS in DMEM/0.1% BSA. At the end of both assays, the cells on the lower filter surface were fixed, stained with haematoxylin, and counted under an optical microscope (Zeiss Axiophot, Carl Zeiss, Milan, Italy) at 20× magnification. The migration and invasion experiments were conducted in triplicate for U87-MG and in duplicate for U251-MG and U138-MG. The migrated or invaded cells were reported as percentage of basal migration or invasion in the presence of DMEM/0.1% BSA, taken as 100%, and analyzed as reported in Section 2.11.
Figure 4 Effect of uPAcyclin on matrix invasion of U87-MG, U251-MG, and U138-MG GBM cells. Quantitative analysis of U87-MG (A), U251-MG (B), and U138-MG (C) invasion. A total of 11 × 10^4 U87-MG or […] U251-MG or U138-MG/sample were pre-treated for 40 min at 37 °C with uPAcyclin (100 nM, 1 µM), anti-αV polyclonal (anti-αV-Pclonal) or monoclonal (anti-αV MoAb) antibody, or anti-actin polyclonal antibody (anti-actin), and then assayed in Boyden chambers at 37 °C, either for basal (BSA) or FBS-dependent invasion (5% FBS) for 5 h at 37 °C. Data are expressed as in the legend to Figure 3. Results are expressed as percentages with respect to the basal invasion, considered as 100% (* p-value < 0.05; ** p-value < 0.005; *** p-value < 0.001).

[2] = tested on: U87-MG cells; test: Boyden chamber migration (chemotaxis), U87-MG; format: cell-based, human; settings: for % of the basal: sheet all data, Average all expts; for % of basal, average / % of basal / cells n°/field / % of basal (T-TEST list): sheet data scrambled; for % of basal, average: Average 2 expts
Protocol: as §1
(§2) Figure 3 Inhibition of U87-MG, U251-MG, and U138-MG GBM cellular migration by uPAcyclin. Quantitative analysis of U87-MG (A), U251-MG (B), and U138-MG (C) directional migration. A total of 11 × 10^4 U87-MG/sample or 4 × 10^4 U251-MG or U138-MG/sample were pre-treated for 40 min at 37 °C with uPAcyclin or S-peptide at the indicated concentrations, anti-αV polyclonal (anti-αV Pclonal) or monoclonal (anti-αV MoAb) antibody, or anti-GAPDH, and anti-α2 monoclonal antibody (anti-α2 MoAb), and then assayed in Boyden chambers at 37 °C, either for basal (BSA) or directional 5% FBS-dependent migration for 3 h at 37 °C. At the end of incubation, the filters were processed as described in Methods. Basal migration was taken as 100% and all values were calculated relative to that (* p-value < 0.05; ** p-value < 0.005; *** p-value < 0.001).

[3] = tested on: C6 cells; test: Vasculogenic mimicry (tube formation on Geltrex), C6; format: cell-based, rat; settings: C6, 16 h
Protocol: The tube formation assay was performed in 96-well plates pre-coated with 50 µL/well of Geltrex^TM (Thermofisher, Scientific, Waltham, MA, USA), and polymerized for 30 min at 37 °C. Briefly, 3 × 10^4 U87-MG, 1.5 × 10^4 U251, and 1 × 10^4 C6 cells/100µL/well were plated onto Geltrex^TM and monitored at 37 °C for the indicated times. The specific effectors were included at time 0. The formation of vascular-like structures by Geltrex^TM-plated U87-MG and U251-MG cells was monitored for 24 h, whereas C6 cells were tested for 16 h. The evaluation of the branching point number, defined as the intersection of at least 3 tubes [24], was performed using the Inverted Microscope DMI Leica 6000 for the U87-MG and U251-MG cells and the Inverted Microscope Axiovert 25 for the C6 cells. At the indicated times, the number of “branching points” was assessed in 4/5 random fields using the ImageJ 1.52a Software.
Figure 7 Vascular mimicry formation by C6 rat cells and inhibition by uPAcyclin. […] (B) After 16 h, the number of branching points was evaluated as described in the legend to Figure 5 and reported in the relative histogram (*** p-value < 0.001).

[4] = tested on: U251-MG cells; test: Boyden chamber migration (chemotaxis), U251-MG; format: cell-based, human
Protocol: as §1, §2

[5] = 100 nM, 5% FBS, 5 h, expt 1, duplicates
[6] = 100 nM, 5% FBS, 5 h, expt 2, duplicates
[7] = 1 µM, 5% FBS, 5 h, expt 1, duplicates
[8] = 1 µM, 5% FBS, 5 h, expt 2, duplicates
[9] = 10pM, Expt n°2, replicate 1 (as labelled)
[10] = 10pM, Expt n°2, replicate 2 (as labelled)
[11] = 1nM, Expt n°2, replicate 1 (as labelled)
[12] = 1nM, Expt n°2, replicate 2 (as labelled)
[13] = 100 nM, sheet data scrambled, 5% FBS, 3 h, expt 1, duplicates
[14] = 100 nM, sheet data scrambled, 5% FBS, 3 h, expt 2, duplicates

For “Ac-K^1P[ESPPEELK^10]-NH2 (sidechain bridge or staple) [uPAcyclin]”, the reduction in invasion ([1]; 100 nM, U138-MG, 5% FBS, 5 h) was 50–60%, the invaded cell number/field [1, 5] was 10 cell number/field and 8 cell number/field and the “invasion, % of basal” value [1, 5] was 143% and 114%. For the same substance, the invaded cell number/field [1, 6] was 9 cell number/field and 8 cell number/field, the “invasion, % of basal” value [1, 6] was 150% and 133% and the “invasion, % of basal, average 2 expts” value ([1]; 100 nM, 5% FBS, 5 h) was 135%. For the same substance, the “invasion, % of basal, average expt 1” value ([1]; 100 nM, 5% FBS, 5 h) was 129%, the “invasion, % of basal, average expt 2” value ([1]; 100 nM, 5% FBS, 5 h) was 142% and the “invasion, % of basal, T-test list” value ([1]; 100 nM) was 143 and 114 and 150 and 133. The “invasion, in words” value ([1]; 1 µM, U138-MG, 5% FBS, 5 h) was “reduced invasion to basal levels”, the invaded cell number/field [1, 7] was 7 cell number/field and 6 cell number/field and the “invasion, % of basal” value [1, 7] was 100% and 86%. For the same substance, the invaded cell number/field [1, 8] was 6 cell number/field and 5 cell number/field, the “invasion, % of basal” value [1, 8] was 100% and 83% and the “invasion, % of basal, average 2 expts” value ([1]; 1 µM, 5% FBS, 5 h) was 92%. For the same substance, the “invasion, % of basal, average expt 1” value ([1]; 1 µM, 5% FBS, 5 h) was 93%, the “invasion, % of basal, average expt 2” value ([1]; 1 µM, 5% FBS, 5 h) was 92% and the “invasion, % of basal, T-test list” value ([1]; 1 µM) was 100 and 86 and 83. For the same substance, the inhibition of migration ([2]; 1 nM, U87-MG, 5% FBS, 3 h) was 70–80%, the “migration, in words” value ([2]; 100 nM, U87-MG, 5% FBS, 3 h) was “below background levels” and the “% of the basal” value ([2]; 10pM) was 168%. For the same substance, the “% of the basal” value ([2]; 1nM) was 119%, the “% of the basal” value ([2]; 100nM) was 87% and the “% of basal, average” value ([2]; 10pM) was 143.5%. The “% of basal” value ([2]; 10pM, Expt n°1, replicate 1) was 133%, the “cells n°/field” value ([2]; 10pM, Expt n°1, replicate 1) was 14 cells n°/field and the “% of basal” value ([2]; 10pM, Expt n°1, replicate 2) was 143%. The “cells n°/field” value ([2]; 10pM, Expt n°1, replicate 2) was 15 cells n°/field, the “% of basal” value [2, 9] was 152% and the “cells n°/field” value [2, 9] was 16 cells n°/field. For the same substance, the “% of basal” value [2, 10] was 133%, the “cells n°/field” value [2, 10] was 14 cells n°/field and the “% of basal (T-TEST list)” value ([2]; 10 pM, T-TEST list value 1) was 143. The “% of basal (T-TEST list)” value ([2]; 10 pM, T-TEST list value 2) was 152, the “% of basal (T-TEST list)” value ([2]; 10 pM, T-TEST list value 3) was 133 and the “% of basal (T-TEST list)” value ([2]; 10 pM, T-TEST list value 4) was 143. The “% of basal, average” value ([2]; 1nM) was 131%, the “% of basal” value ([2]; 1nM, Expt n°1, replicate 1) was 124% and the “cells n°/field” value ([2]; 1nM, Expt n°1, replicate 1) was 13 cells n°/field. For the same substance, the “% of basal” value ([2]; 1nM, Expt n°1, replicate 2) was 124%, the “cells n°/field” value ([2]; 1nM, Expt n°1, replicate 2) was 13 cells n°/field and the “% of basal” value [2, 11] was 143%. The “cells n°/field” value [2, 11] was 15 cells n°/field, the “% of basal” value [2, 12] was 171% and the “cells n°/field” value [2, 12] was 18 cells n°/field. For the same substance, the “% of basal (T-TEST list)” value ([2]; 1 nM, T-TEST list value 1) was 133, the “% of basal (T-TEST list)” value ([2]; 1 nM, T-TEST list value 2) was 143 and the “% of basal (T-TEST list)” value ([2]; 1 nM, T-TEST list value 3) was 124. For the same substance, the “% of basal (T-TEST list)” value ([2]; 1 nM, T-TEST list value 4) was 124, the “inhibition of branching point number” value ([3]; 10 pM) was 40% and the “inhibition of branching point number” value ([3]; 100 nM) was 60%. For the same substance, the inhibition of migration ([4]; 1 nM, U251-MG, 5% FBS, 3 h) was 70–80%, the “migration, % of the basal, average all expts” value ([4]; 1 nM) was 99% and the “migration, in words” value ([4]; 100 nM, U251-MG, 5% FBS, 3 h) was “below background levels”. The “migration, % of the basal, average all expts” value ([4]; 100 nM) was 83%, the “migrated cells n°/field” value [4, 13] was 12 cells n°/field and 13 cells n°/field and the “migration, % of basal” value [4, 13] was 86% and 93%. For the same substance, the “migrated cells n°/field” value [4, 14] was 27 cells n°/field and 21 cells n°/field, the “migration, % of basal” value [4, 14] was 123% and 95% and the “migration, % of basal, average 2 expts” value ([4]; 100 nM, sheet data scrambled, mean of 2 expts) was 99.2955%. For the same substance, the “migration, % of basal, average expt 1” value ([4]; 100 nM, sheet data scrambled, mean of expt 1) was 89.5%, the “migration, % of basal, average expt 2” value ([4]; 100 nM, sheet data scrambled, mean of expt 2) was 109.091% and the “migration, % of basal, T-test list” value ([4]; 100 nM, sheet data scrambled, single replicates) was 86 and 93 and 95.
